Laboratory results taken from patent publication US12723128B2, “Aromatic diol compounds, diepoxide compounds, polymers prepared from such compounds, and methods for making the same” (SWIMC LLC, priority 2020, dated 2026).

Assay: Stability by differential scanning calorimetry (DSC)
Assay type: physicochemical
Conditions: FIG. 7
Procedure: In Example 9, the stability of the diglycidyl ether of Example 4B (cyclohexanone 2,6 methylene bis (2-furan, 5-methanol glycidyl ether)) was tested using differential scanning calorimetry (“DSC”).

O=C1/C(=C/c2ccc(COCC3CO3)o2)CCC/C1=C\c1ccc(COCC2CO2)o1 (stereo not shown) [Example 4B, cyclohexanone 2,6 methylene bis (2-furan, 5-methanol glycidyl ether)]
Stability (stable up to): up to 180 °C
